Consider ten molecules from PMC9414972, “α-Glucosidase and α-Amylase Inhibitory Potentials of Quinoline–1,3,4-oxadiazole Conjugates Bearing 1,2,3-Triazole with Antioxidant Activity, Kinetic Studies, and Computational Validation” (Pharmaceuticals, 2022).

Data set [1] concerns the target T1, α-glucosidase (Saccharomyces cerevisiae, UniProt P38158).
T1 construct: purchased Merck
Kind of data set: Mode of α-glucosidase inhibition (enzyme kinetics, Lineweaver–Burk). Type of data set: biochemical. As to conditions: Lineweaver–Burk plots; inhibitor 0, 75, 150, 300 µM; pNPG. The text has this: Understanding a drug’s mode of inhibiting its target is crucial to improve the drug’s activity profile and target specificity. Although orthosteric inhibition, in which the ligand binds at the target’s active site, dominates among currently available drugs, allosteric inhibitors (i.e., drugs binding at regions […] the active site) are desirable due to their reduced vulnerability to active site mutation or to displacement through native substrate overload at the active site. Accordingly, the mode of α-glucosidase inhibition was investigated for promising compounds 4b, 4i, 4j, 4k, 4l, 12k, and 12m, using a time-dependent para-nitrophenyl-[…] (pNPG) assay; the results are presented as Lineweaver–Burk plots (Figure 4). […] Conceivably, this can result in decreased systemic glucose concentration thus alleviating postprandial hyperglycemia and its associated complications.
The mode of inhibition of α-glucosidase of the 4b, 4i, 4j, 4k, 4l, 12k, and 12m compounds was determined using the method described by Kazeem et al. 2013, with modifications. Briefly, 50 µL of the 4b, 4i, 4j, 4k, 4l, 12k, and 12m compounds at (0 µM, 75 µM, 150 µM and 300 µM) concentrations were preincubated with 100 µL of α-glucosidase solution for 10 min at 25 °C in one set of tubes. In another set of tubes, α-glucosidase was preincubated with 50 µL of phosphate buffer (pH 6.9). 25 µL of pNPG at increasing concentrations (0.125–4.0 mg/mL) was added to both sets of solution to start the reaction. Immediately, the absorbance of the resulting solution was monitored for 2 min in a spectrophotometer at 405 nm. The amount of 4-nitrophenol released was determined from a 4-nitrophenol standard curve and then converted to reaction velocities.

A short description of data set [2]: Ferric reducing antioxidant power (FRAP). As to conditions: ferric reducing antioxidant power. On the procedure:
FRAP is a ferric (Fe^3+) to ferrous (Fe^2+) ions reduction assay that measures a compound’s electron-donating capacity, i.e., the antioxidant’s reducing power.
The mixture was incubated at 50 °C for 20 min, followed by acidification with 100 μL trichloroacetic acid (10%). After centrifugation at 3500 rpm for 10 min, 200 μL of the supernatant was transferred into another test tube containing 200 μL of distilled water and 0.8 mL of FeCl3 (0.1%). Finally, the absorbance was read at 700 nm, and the total reductive antioxidant power was calculated thus: Ferric reducing antioxidant power (%)=Absorbance of compound/Absorbance of 500µM gallic acid×100

Data set [3] in a line: DPPH radical scavenging activity. As to conditions: DPPH radical scavenging, 30 min, 25 °C. On the procedure:
The DPPH assay is used conventionally to quantify a compound’s ability to trap free radicals.
The compounds were evaluated for their ability to scavenge stable DPPH radicals, using a modification of the method by Turkoglu et al..
(Loss of DPPH colour is used to gauge radical scavenging.)

Data set [4] has as its target T2, porcine pancreatic amylase (Sus scrofa, UniProt P00690).
T2 construct: purchased Merck
T2 sequence (P00690 16-511): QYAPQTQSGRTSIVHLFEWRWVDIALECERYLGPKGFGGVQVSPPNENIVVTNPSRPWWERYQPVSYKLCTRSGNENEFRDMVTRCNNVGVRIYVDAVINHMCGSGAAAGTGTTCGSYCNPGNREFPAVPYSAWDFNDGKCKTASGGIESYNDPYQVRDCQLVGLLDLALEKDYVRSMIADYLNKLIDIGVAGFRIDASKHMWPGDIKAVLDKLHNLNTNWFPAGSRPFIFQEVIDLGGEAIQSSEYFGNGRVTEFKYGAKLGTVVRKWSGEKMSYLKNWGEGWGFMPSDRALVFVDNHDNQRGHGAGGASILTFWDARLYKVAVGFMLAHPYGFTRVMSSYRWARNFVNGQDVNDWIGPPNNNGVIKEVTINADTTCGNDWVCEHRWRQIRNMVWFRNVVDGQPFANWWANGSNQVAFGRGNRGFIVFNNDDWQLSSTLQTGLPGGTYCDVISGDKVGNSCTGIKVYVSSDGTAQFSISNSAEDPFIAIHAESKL
The experiment in a line: α-Amylase inhibitory activity (starch/DNS). As to conditions: porcine pancreatic amylase, starch, pH 6.9, 25 °C; read-out: IC50 α-Amylase. It counts as biochemical. On the procedure: α-Amylase inhibitory activity was determined according to Ibitoye et al. with slight modifications. […] The reaction in the mixture was terminated with a 1 mL dinitrosalicylate reagent before boiling for 10 min. The cooled mixture was diluted with 5 mL distilled water, and the absorbance was read at 540 nm. The inhibitory activity was calculated using the formula below: % Inhibition=1−Absorbance of compound/Absorbance of control×100

Data set [5] in a line: Nitric oxide (NO) scavenging activity. As to conditions: nitric oxide radical scavenging, 37 °C, 2 h. On the procedure: The screening of the present compound series for NO radical scavenging activity (Table 2) identified excellent NO scavengers.
The antioxidant capacity of the compounds to scavenge nitric oxide radicals was determined using a modified version of the protocol by Kurian et al.. Briefly, 250 μL of sodium nitroprusside (10 mM) prepared in sodium phosphate buffer (pH 7.4) was added to 500 μL of the compound solution (62.5–500 μM) or distilled water (control). The resulting solution was incubated at 37 °C for 2 h. Then, 250 μL of Griess reagent was added to the reaction mixture before the absorbance was measured at 546 nm. The nitric oxide scavenging activity of the compounds was calculated with the formula: Nitric oxide scavenging (%)=1−Absorbance of compound/Absorbance of control×100

In data set [6] the target is T1, α-glucosidase. The experiment in a line: biochemical. As to conditions: pNPG substrate, pH 6.8, 37 °C; read-out: IC50 α-Glucosidase. Here is the method: The α-glucosidase inhibitory activity was evaluated using a previous method with slight modifications.
The target in data set [7] is T1, α-glucosidase. Also on record: method as in ref 22 (Taha et al.). As to conditions: ref 22 (Taha et al.), cited from earlier work.
Data set [8] has as its target T1, α-glucosidase. More on the design: method as in ref 23 (Izgi et al.). As to conditions: ref 23 (Izgi et al.); read-out: α-glucosidase inhibition IC50; cited from earlier work.
The target in data set [9] is T1, α-glucosidase. Also on record: method as in ref 28 (Asemanipoor et al.). As to conditions: ref 28 (Asemanipoor et al.); read-out: α-glucosidase inhibition IC50; cited from earlier work.

The structures appear in SMILES notation. Where two headings read alike, the source gives them in different places.

T1 sequence (P38158 whole entry): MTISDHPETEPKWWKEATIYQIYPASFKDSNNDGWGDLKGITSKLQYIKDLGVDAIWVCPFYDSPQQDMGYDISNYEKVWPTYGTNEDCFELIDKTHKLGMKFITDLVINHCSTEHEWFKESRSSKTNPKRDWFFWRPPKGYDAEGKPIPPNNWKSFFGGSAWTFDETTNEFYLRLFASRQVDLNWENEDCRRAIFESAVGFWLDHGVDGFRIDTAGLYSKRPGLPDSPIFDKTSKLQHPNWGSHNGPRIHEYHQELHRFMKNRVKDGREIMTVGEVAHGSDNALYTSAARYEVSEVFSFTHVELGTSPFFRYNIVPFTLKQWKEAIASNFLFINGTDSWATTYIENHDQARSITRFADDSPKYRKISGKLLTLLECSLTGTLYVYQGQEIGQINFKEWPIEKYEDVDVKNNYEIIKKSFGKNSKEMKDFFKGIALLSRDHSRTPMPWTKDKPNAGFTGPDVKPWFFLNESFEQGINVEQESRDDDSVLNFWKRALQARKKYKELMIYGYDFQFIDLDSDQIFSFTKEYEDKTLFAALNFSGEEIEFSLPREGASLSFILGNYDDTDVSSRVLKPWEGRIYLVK

By IC50 is commonly meant the midpoint of a concentration-inhibition curve. In the case of `CCCSc1nnc(COc2cccc3cccnc23)o1` [4b, 2-(Propylthio)-5-[(quinolin-8-yloxy)methyl]-1,3,4-oxadiazole], on α-glucosidase [1], the “mode of α-glucosidase inhibition” value was “non-competitive”. Moreover, the concentration for half-maximal inhibition (IC50) was greater than 500 µM in [2]; 78.2 µM in data set [3]; greater than 500 µM in data set [4]; greater than 500 µM in [5]; 24.9 µM at α-glucosidase [6].
`BrCCCCCSc1nnc(COc2cccc3cccnc23)o1` [4i, 2-[(5-Bromopentyl)thio]-5-[(quinolin-8-yloxy)methyl]-1,3,4-oxadiazole]: the “mode of α-glucosidase inhibition” value on α-glucosidase [1] is “non-competitive”. Besides, the IC50 in data set [2] was 22.9 µM; in data set [3], 54.9 µM; in data set [4] it was greater than 500 µM; in [5], 198 µM; at α-glucosidase [6] it was 15.8 µM.
The melting point is the temperature of the solid-liquid transition. Consider `c1ccc(CSc2nnc(COc3cccc4cccnc34)o2)cc1` [4j, 2-(Benzylthio)-5-[(quinolin-8-yloxy)methyl]-1,3,4-oxadiazole], for which the melting point is 75.3 to 79.8 °C. Besides, the “mode of α-glucosidase inhibition” value at α-glucosidase [1] is on record as “non-competitive”. Besides, the 50% inhibitory concentration (IC50) in data set [2] was greater than 500 µM. The midpoint of inhibition in data set [3], the IC50, lay at 54.9 µM. In addition, in data set [4], the IC50 was greater than 500 µM. This molecule also gave an IC50 in [5] of 399 µM. Besides, on α-glucosidase [6], the 50% inhibitory concentration (IC50) is 26.7 µM.
Consider `Fc1ccc(CSc2nnc(COc3cccc4cccnc34)o2)cc1` [4k, 2-[(4-Fluorobenzyl)thio]-5-[(quinolin-8-yloxy)methyl]-1,3,4-oxadiazole], for which the melting point is 106.9 to 109.4 °C. Besides, on α-glucosidase [1], the “mode of α-glucosidase inhibition” value was “non-competitive”. Moreover, the IC50 in [2] was greater than 500 µM. The molecule further yielded an IC50 in [3] of 81.1 µM. The IC50 in data set [4] is greater than 500 µM. This molecule returned a half-maximal inhibitory concentration (IC50) in [5] greater than 500 µM. On α-glucosidase [6], the half-maximal inhibitory concentration (IC50) came out at 23.7 µM.
On to `Clc1ccc(CSc2nnc(COc3cccc4cccnc34)o2)cc1` [4l, 2-[(4-Chlorobenzyl)thio]-5-[(quinolin-8-yloxy)methyl]-1,3,4-oxadiazole], for which the melting point was 101.4 to 104.2 °C. Further, the “mode of α-glucosidase inhibition” value at α-glucosidase [1] is on record as “non-competitive”. This molecule gave a half-maximal inhibitory concentration (IC50) in data set [2] greater than 500 µM. In data set [3], this molecule displayed a 50% inhibitory concentration (IC50) of 77.7 µM. Besides, the IC50 in data set [4] was greater than 500 µM. Besides, the IC50 in data set [5] is greater than 500 µM. Further, the 50% inhibitory concentration (IC50) on α-glucosidase [6] came to 25.2 µM.
In the case of `c1ccc(-n2cc(CSc3nnc(COc4cccc5cccnc45)o3)nn2)cc1` [12k, 2-{[(1-Phenyl-1H-1,2,3-triazol-4-yl)methyl]thio}-5-[(quinolin-8-yloxy)methyl]-1,3,4-oxadiazole], the melting point lay in the range of 122 to 128 °C. In addition, at α-glucosidase [1], the “mode of α-glucosidase inhibition” value was “non-competitive”. Also, the IC50 in data set [2] was greater than 500 µM. Besides, in [3], the IC50 was 85.7 µM. Also, the half-maximal inhibitory concentration (IC50) in data set [4] was greater than 500 µM. In addition, in data set [5], the half-maximal inhibitory concentration (IC50) was greater than 500 µM. The IC50 at α-glucosidase [6] is 22.5 µM.
`Fc1ccc(-n2cc(CSc3nnc(COc4cccc5cccnc45)o3)nn2)cc1` [12m, 2-{[(1-(4-Fluorophenyl)-1H-1,2,3-triazol-4-yl)methyl]thio}-5-[(quinolin-8-yloxy)methyl]-1,3,4-oxadiazole] registered a melting point of 134 to 140 °C. Besides, at α-glucosidase [1], the “mode of α-glucosidase inhibition” value is recorded as “non-competitive”. In [2], the IC50 is greater than 500 µM. For the same molecule, the half-inhibitory concentration (IC50) in [3] is 88.7 µM. Besides, the IC50 in [4] was greater than 500 µM. For the same molecule, in [5], the IC50 was greater than 500 µM. On α-glucosidase [6], the IC50 came to 26.8 µM.
Consider `O=C(N/N=C/c1ccc(O)c(O)c1)c1ccc(-c2nnc(-c3ccc4ncccc4c3)o2)cc1` [A], for which, at α-glucosidase [7], the “fold superior α-glucosidase inhibition compared with acarbose” value is on record as 15 fold. On α-glucosidase [7] (read-out: α-glucosidase inhibition IC50), the half-inhibitory concentration (IC50) is 2.6 µM.
Take `c1ccc(-c2nnc(-c3c[nH]c4ncccc34)o2)cc1` [B]: the concentration for half-maximal inhibition (IC50) on α-glucosidase [8] is 400 µM.
For the molecule `CCc1ccc(NC(=O)Cn2cc(COc3ccc(-c4nc5ccccc5[nH]4)cc3)nn2)cc1` [C], on α-glucosidase [9], the 50% inhibitory concentration (IC50) is 35 µM.
